Results: patent US20250197372A1 (priority 2020, published 2025)

Legend:
Assay type in all cases: biochemical
[1] = molecular target: T1, recombinant alpha-glucosidase II (murine full-length glucosidase II, alpha and beta subunits, Glu 2) (Mus musculus, UniProt Q8BHN3); test: Alpha-glucosidase II assay (4-methylumbelliferyl-alpha-D-pyranoside substrate, fluorescence); settings: Glucosidase 2; read-out: Glu2 IC50
T1 construct: made in house; host or cells: HEK-293T cells transduced with BacMam viruses (75% alpha, 25% beta); protein harvested from culture supernatant

[2] = molecular target: T2, recombinant human GBA (beta-glucocerebrosidase) (Homo sapiens, UniProt P04062); test: Beta-glucocerebrosidase (GBA, glucosylceramidase) assay (4-methylumbelliferyl-beta-D-pyranoside substrate, fluorescence)
T2 sequence (P04062 40-536): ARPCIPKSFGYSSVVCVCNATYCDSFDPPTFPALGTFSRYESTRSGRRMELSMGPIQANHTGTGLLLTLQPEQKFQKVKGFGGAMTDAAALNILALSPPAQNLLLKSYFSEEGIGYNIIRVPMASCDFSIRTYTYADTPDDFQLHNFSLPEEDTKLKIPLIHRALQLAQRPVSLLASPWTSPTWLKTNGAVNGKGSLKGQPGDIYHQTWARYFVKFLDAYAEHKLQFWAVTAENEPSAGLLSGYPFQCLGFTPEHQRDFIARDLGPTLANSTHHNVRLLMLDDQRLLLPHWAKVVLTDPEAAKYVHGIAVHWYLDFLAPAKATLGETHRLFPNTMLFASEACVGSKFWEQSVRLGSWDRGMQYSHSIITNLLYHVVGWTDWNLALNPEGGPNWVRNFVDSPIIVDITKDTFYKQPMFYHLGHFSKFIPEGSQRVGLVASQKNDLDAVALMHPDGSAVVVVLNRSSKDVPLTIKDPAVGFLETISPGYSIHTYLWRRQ
In short: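 Recombinant human GBA preincubated with compound dilutions 60 min at 37 °C, then 4-methylumbelliferyl-beta-D-pyranoside added for 60 min at 37 °C. Stopped at pH 10 (glycine/NaOH); fluorescence ex 365/em 440 nm. IC50 from 4-PL fit of inhibition relative to untreated enzyme.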

[3] = molecular target: recombinant human GAA (acid alpha-glucosidase) (Homo sapiens, UniProt P10253); test: Acid alpha-glucosidase (GAA) assay (4-methylumbelliferyl-alpha-D-pyranoside substrate, fluorescence)
In short: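 Recombinant human enzyme preincubated 60 min at 37 °C with compound dilutions, then 4-methylumbelliferyl-alpha-D-pyranoside substrate added for 20 min at 37 °C. Stopped with glycine/NaOH pH 10; methylumbelliferone fluorescence (ex 365, em 440 nm) versus untreated enzyme; IC50 by 4-PL fit.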

[4] = molecular target: rat maltase (partially purified alpha-glucosidase from intestinal rat powder); test: Intestinal alpha-glucosidase assay, maltose substrate (Glucose GO Kit)
In short: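 First step: 60 min, 37 °C, compound with partially purified rat intestinal alpha-glucosidase. Next, maltose or sucrose for 30 min at 37 °C, ended at 90 °C for 5 min. Glucose quantified enzymatically; concentration–inhibition data fitted 4-PL for IC50.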

T1 sequence (O08795 15-521): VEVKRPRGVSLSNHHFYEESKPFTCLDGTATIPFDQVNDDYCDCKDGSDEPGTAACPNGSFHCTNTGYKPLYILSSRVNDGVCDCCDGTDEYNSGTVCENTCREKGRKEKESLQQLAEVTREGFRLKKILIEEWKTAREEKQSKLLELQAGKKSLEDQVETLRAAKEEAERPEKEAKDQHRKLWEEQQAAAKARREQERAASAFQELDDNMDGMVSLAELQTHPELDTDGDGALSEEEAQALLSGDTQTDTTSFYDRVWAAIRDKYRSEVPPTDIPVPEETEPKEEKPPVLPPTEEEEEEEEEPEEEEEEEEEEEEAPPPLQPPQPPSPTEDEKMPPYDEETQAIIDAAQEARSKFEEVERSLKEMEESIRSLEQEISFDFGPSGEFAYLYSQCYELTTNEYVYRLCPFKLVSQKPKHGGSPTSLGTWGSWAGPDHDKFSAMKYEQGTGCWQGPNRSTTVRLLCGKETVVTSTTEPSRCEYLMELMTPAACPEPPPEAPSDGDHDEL
T1 sequence (Q8BHN3 33-944): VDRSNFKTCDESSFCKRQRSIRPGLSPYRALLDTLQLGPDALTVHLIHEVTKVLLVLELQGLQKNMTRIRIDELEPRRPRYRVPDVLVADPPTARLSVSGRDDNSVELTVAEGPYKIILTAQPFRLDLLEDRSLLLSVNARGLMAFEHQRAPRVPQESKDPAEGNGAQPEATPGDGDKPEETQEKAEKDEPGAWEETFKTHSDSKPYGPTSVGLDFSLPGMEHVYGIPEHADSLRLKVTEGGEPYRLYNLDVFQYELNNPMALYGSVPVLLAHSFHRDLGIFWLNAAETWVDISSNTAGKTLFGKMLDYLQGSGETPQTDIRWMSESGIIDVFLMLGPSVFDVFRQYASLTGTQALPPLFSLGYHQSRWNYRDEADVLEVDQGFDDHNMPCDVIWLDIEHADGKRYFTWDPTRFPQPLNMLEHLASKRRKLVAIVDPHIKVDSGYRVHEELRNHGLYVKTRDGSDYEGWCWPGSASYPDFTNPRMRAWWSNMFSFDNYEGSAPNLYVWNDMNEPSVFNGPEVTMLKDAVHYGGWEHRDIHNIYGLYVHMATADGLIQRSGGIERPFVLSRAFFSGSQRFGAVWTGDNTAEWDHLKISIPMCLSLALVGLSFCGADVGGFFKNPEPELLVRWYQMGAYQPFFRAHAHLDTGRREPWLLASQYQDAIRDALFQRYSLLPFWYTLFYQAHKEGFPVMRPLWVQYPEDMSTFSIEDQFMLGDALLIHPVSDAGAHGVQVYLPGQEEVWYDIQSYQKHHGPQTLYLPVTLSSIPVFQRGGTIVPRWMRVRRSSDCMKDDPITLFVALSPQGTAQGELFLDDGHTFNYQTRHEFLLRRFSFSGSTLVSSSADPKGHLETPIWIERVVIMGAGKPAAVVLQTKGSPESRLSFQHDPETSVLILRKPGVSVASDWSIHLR

## Cc1cc(NCc2ccc(CN3C[C@H](O)[C@@H](O)[C@H](O)[C@H]3CO)cc2)cc(-n2ccnn2)c1 [Compound 1323, (2R,3R,4R,5S)-2-(hydroxymethyl)-1-{[4-({[3-methyl-5-(1H-1,2,3-triazol-1-yl)phenyl]amino}methyl)phenyl]methyl}piperidine-3,4,5-triol]
[1]
  IC50: 0.382 µM
[2]
  IC50: > 100 µM
[3]
  IC50: 76 nM
[4]
  IC50: 11 nM

## OC[C@@H]1[C@@H](O)[C@H](O)[C@@H](O)CN1Cc1cnc(CNc2cc(-c3ncccn3)cc(C3CC3)c2)cn1 [Compound 1329, (2R,3R,4R,5S)-1-{[5-({[3-cyclopropyl-5-(pyrimidin-2-yl)phenyl]amino}methyl)pyrazin-2-yl]methyl}-2-(hydroxymethyl)piperidine-3,4,5-triol]
[1]
  IC50: 2.55 µM
[2]
  IC50: 82.9 µM
[3]
  IC50: 50 nM
[4]
  IC50: 548 nM

## Cc1cc(NCc2cnc(CN3C[C@H](O)[C@@H](O)[C@H](O)[C@H]3CO)cn2)cc(-c2ccc[nH]2)c1 [Compound 1330, (2R,3R,4R,5S)-2-(hydroxymethyl)-1-{[5-({[3-methyl-5-(1H-pyrrol-2-yl)phenyl]amino}methyl)pyrazin-2-yl]methyl}piperidine-3,4,5-triol]
[1]
  IC50: 14.4 µM
[2]
  IC50: 13.2 µM
[3]
  IC50: 90 nM
[4]
  IC50: 577 nM

## Cc1cc(NCc2cnc(CN3C[C@H](O)[C@@H](O)[C@H](O)[C@H]3CO)cn2)cc(N2CCOCC2)c1 [Compound 1332, (2R,3R,4R,5S)-2-(hydroxymethyl)-1-{[5-({[3-methyl-5-(morpholin-4-yl)phenyl]amino}methyl)pyrazin-2-yl]methyl}piperidine-3,4,5-triol]
[1]
  IC50: > 100 µM
[2]
  IC50: > 100 µM
[3]
  IC50: 165 nM
[4]
  IC50: 573 nM

## OC[C@@H]1[C@@H](O)[C@H](O)[C@@H](O)CN1Cc1cccc(CNc2cc(-c3ncccn3)cc(C3CC3)c2)n1 [Compound 1333, (2R,3R,4R,5S)-1-{[6-({[3-cyclopropyl-5-(pyrimidin-2-yl)phenyl]amino}methyl)pyridin-2-yl]methyl}-2-(hydroxymethyl)piperidine-3,4,5-triol]
[1]
  IC50: > 100 µM
[2]
  IC50: > 100 µM
[3]
  IC50: 2180 nM
[4]
  IC50: 846 nM

## Cc1cc(NCc2cccc(CN3C[C@H](O)[C@@H](O)[C@H](O)[C@H]3CO)n2)cc(-c2ccco2)c1 [Compound 1334, (2R,3R,4R,5S)-1-{[6-({[3-(furan-2-yl)-5-methylphenyl]amino}methyl)pyridin-2-yl]methyl}-2-(hydroxymethyl)piperidine-3,4,5-triol]
[1]
  IC50: > 100 µM
[2]
  IC50: > 100 µM
[3]
  IC50: 714 nM
[4]
  IC50: 224 nM

## Cc1cc(NCc2cccc(CN3C[C@H](O)[C@@H](O)[C@H](O)[C@H]3CO)n2)cc(N2CCOCC2)c1 [Compound 1336, (2R,3R,4R,5S)-2-(hydroxymethyl)-1-{[6-({[3-methyl-5-(morpholin-4-yl)phenyl]amino}methyl)pyridin-2-yl]methyl}piperidine-3,4,5-triol]
[1]
  IC50: > 100 µM
[2]
  IC50: > 100 µM
[3]
  IC50: 10400 nM
[4]
  IC50: 9990 nM

## COc1ccc(C#CCCCCCN2C[C@H](O)[C@@H](O)[C@H](O)[C@H]2CO)cc1 [Compound 1338, (2R,3R,4R,5S)-2-(hydroxymethyl)-1-[7-(4-methoxyphenyl)hept-6-yn-1-yl]piperidine-3,4,5-triol]
[1]
  IC50: 0.109 µM
[2]
  IC50: 9.44 µM
[3]
  IC50: 860 nM
[4]
  IC50: 146 nM
